From ChEMBL document CHEMBL5329166, “Discovery of imeglimin-inspired novel 1,3,5-triazine derivatives as antidiabetic agents in streptozotocin-induced diabetes in Wistar rats via inhibition of DPP-4” (RSC Med Chem, 2023)
Activity calls are given as the source filed them. The calls are words filed in the database; no cut-off is given here.

Key:
[1] = tested on: Rattus norvegicus; assay: Antioxidant activity in IG dosed high fat diet/STZ induced diabetic Wistar rat model assessed as reversal of CAT reduction in liver pretreated with STZ for 21 days followed by compound treatment once daily for 21 days by spectrophotometric analysis; assay type: functional, organism-based; conditions: dose 3-30 mg/kg, time 21.0 day
[2] = tested on: Rattus norvegicus; assay: Antidiabetic activity in high fat diet/STZ induced diabetic Wistar rat model assessed as reduction in triglyceride level at 3 to 30 mg/kg, IG pretreated with STZ for 21 days followed by compound treatment once daily for 21 days by spectrophotometric analysis; assay type: functional, organism-based; conditions: dose 3-30 mg/kg, time 21.0 day
[3] = tested on: Rattus norvegicus; assay: Antidiabetic activity in IG dosed high fat diet/STZ induced diabetic Wistar rat model assessed as reduction in blood sugar level pretreated with STZ for 21 days followed by compound treatment once daily for 21 days by glucose test strips based assay; assay type: functional, organism-based; conditions: dose 3-30 mg/kg, time 21.0 day
[4] = Acute toxicity in rat assessed as change in salivation at 2000 mg/kg, po measured after 30 mins to 4 hrs; assay type: organism-based; conditions: in vivo, time 0.5-4 hrs
[5] = tested on: Rattus norvegicus; assay: Antidiabetic activity in high fat diet/STZ induced diabetic Wistar rat model assessed as increase in fasting serum insulin at 3 to 30 mg/kg, IG pretreated with STZ for 21 days followed by compound treatment once daily for 21 days by chemiluminescence immunoassay; assay type: functional, organism-based; conditions: dose 3-30 mg/kg, time 21.0 day
[6] = tested on: Rattus norvegicus; assay: Antioxidant activity in high fat diet/STZ induced diabetic Wistar rat model assessed as reduction in mesangial cellularity and matrix at 3 mg/kg, IG pretreated with STZ for 21 days followed by compound treatment once daily for 21 days by H and E staining based microscopic analysis; assay type: functional, organism-based; conditions: time 21.0 day
[7] = Acute toxicity in rat assessed as change in animal skin and fur at 2000 mg/kg, po measured after 30 mins to 4 hrs; assay type: organism-based; conditions: in vivo, time 0.5-4 hrs
[8] = tested on: Rattus norvegicus; assay: Antioxidant activity in high fat diet/STZ induced diabetic Wistar rat model assessed as reduction in glomeruli infiltration in stroma at 3 to 30 mg/kg, IG pretreated with STZ for 21 days followed by compound treatment once daily for 21 days by H and E staining based microscopic analysis; assay type: functional, organism-based; conditions: dose 3-30 mg/kg, time 21.0 day
[9] = tested on: Rattus norvegicus; assay: Antioxidant activity in high fat diet/STZ induced diabetic Wistar rat model assessed as hepatocyte cytoplasm recovery at 30 mg/kg, IG pretreated with STZ for 21 days followed by compound treatment once daily for 21 days by H and E staining based microscopic analysis; assay type: functional, organism-based; conditions: time 21.0 day
[10] = Acute toxicity in rat assessed as behavioural alterations at 300 to 1000 mg/kg, po measured after 6 hrs; assay type: organism-based; conditions: in vivo, dose 300-1000 mg/kg
[11] = target: Dipeptidyl peptidase 8 (Homo sapiens, UniProt Q6V1X1); assay: Inhibition of N-terminal GST/His-tagged human recombinant DPP-8 (1 to 898 residues) expressed in Sf9 insect cells using Ala-Pro-AMC dipeptide as substrate by fluorescence based assay
[12] = tested on: Rattus norvegicus; assay: Antidiabetic activity in high fat diet/STZ induced diabetic Wistar rat model assessed as reduction in total cholesterol level at 3 to 30 mg/kg, IG pretreated with STZ for 21 days followed by compound treatment once daily for 21 days by spectrophotometric analysis; assay type: functional, organism-based; conditions: dose 3-30 mg/kg, time 21.0 day
[13] = tested on: Rattus norvegicus; assay: Antioxidant activity in high fat diet/STZ induced diabetic Wistar rat model assessed as repair of pancreatic epithelial cells with normal islets at 30 mg/kg, IG pretreated with STZ for 21 days followed by compound treatment once daily for 21 days by H and E staining based microscopic analysis; assay type: functional, organism-based; conditions: time 21.0 day
[14] = Antioxidant activity assessed as H2O2 scavenging activity incubated for 10 mins by absorbance based assay; assay type: functional; conditions: dose 25-100 µg/ml
[15] = Acute toxicity in rat assessed as change in eyes and mucous membranes at 2000 mg/kg, po measured after 30 mins to 4 hrs; assay type: organism-based; conditions: in vivo, time 0.5-4 hrs
[16] = Acute toxicity in rat assessed as diarrhoea at 300 to 1000 mg/kg, po measured after 6 hrs; assay type: organism-based; conditions: in vivo, dose 300-1000 mg/kg
[17] = Acute toxicity in rat assessed as change in animal skin at 300 to 1000 mg/kg, po measured after 6 hrs; assay type: organism-based; conditions: in vivo, dose 300-1000 mg/kg
[18] = tested on: Rattus norvegicus; assay: Antioxidant activity in high fat diet/STZ induced diabetic Wistar rat model assessed as healing of hepatocyte nucleus at 3 mg/kg, IG pretreated with STZ for 21 days followed by compound treatment once daily for 21 days by H and E staining based microscopic analysis; assay type: functional, organism-based; conditions: time 21.0 day
[19] = tested on: Rattus norvegicus; assay: Antioxidant activity in high fat diet/STZ induced diabetic Wistar rat model assessed as appearance of round-oval nuclei in hepatocytes at 30 mg/kg, IG pretreated with STZ for 21 days followed by compound treatment once daily for 21 days by H and E staining based microscopic analysis; assay type: functional, organism-based; conditions: time 21.0 day
[20] = tested on: Rattus norvegicus; assay: Antioxidant activity in IG dosed high fat diet/STZ induced diabetic Wistar rat model assessed as reversal of SOD reduction in liver pretreated with STZ for 21 days followed by compound treatment once daily for 21 days by spectrophotometric analysis; assay type: functional, organism-based; conditions: dose 3-30 mg/kg, time 21.0 day
[21] = Acute toxicity in rat assessed as change in sleep patterns at 2000 mg/kg, po measured after 30 mins to 4 hrs; assay type: organism-based; conditions: in vivo, time 0.5-4 hrs
[22] = tested on: Rattus norvegicus; assay: Antioxidant activity in high fat diet/STZ induced diabetic Wistar rat model assessed as reduction in plasma cells in renal stroma at 3 to 3 to 30 mg/kg, IG pretreated with STZ for 21 days followed by compound treatment once daily for 21 days by H and E staining based microscopic analysis; assay type: functional, organism-based; conditions: dose 3-30 mg/kg, time 21.0 day
[23] = tested on: Rattus norvegicus; assay: Antidiabetic activity in high fat diet/STZ induced diabetic Wistar rat model assessed as reduction in VLDL level at 3 to 30 mg/kg, IG pretreated with STZ for 21 days followed by compound treatment once daily for 21 days by spectrophotometric analysis; assay type: functional, organism-based; conditions: dose 3-30 mg/kg, time 21.0 day
[24] = tested on: Rattus norvegicus; assay: Antioxidant activity in high fat diet/STZ induced diabetic Wistar rat model assessed as healing of hepatocyte cytoplasm at 3 to 10 mg/kg, IG pretreated with STZ for 21 days followed by compound treatment once daily for 21 days by H and E staining based microscopic analysis; assay type: functional, organism-based; conditions: dose 3-10 mg/kg, time 21.0 day
[25] = tested on: Rattus norvegicus; assay: Antidiabetic activity in high fat diet/STZ induced diabetic Wistar rat model assessed as reduction in LDL level at 3 to 30 mg/kg, IG pretreated with STZ for 21 days followed by compound treatment once daily for 21 days by spectrophotometric analysis; assay type: functional, organism-based; conditions: dose 3-30 mg/kg, time 21.0 day
[26] = Acute toxicity in rat assessed as change in animal eyes at 300 to 1000 mg/kg, po measured after 6 hrs; assay type: organism-based; conditions: in vivo, dose 300-1000 mg/kg
[27] = Acute toxicity in rat assessed as change in salivation at 300 to 1000 mg/kg, po measured after 6 hrs; assay type: organism-based; conditions: in vivo, dose 300-1000 mg/kg
[28] = Antioxidant activity assessed as H2O2 scavenging activity at 73.43 ug/ml incubated for 10 mins by absorbance based assay; assay type: functional; conditions: dose 73.43 µg/ml
[29] = tested on: Rattus norvegicus; assay: Antioxidant activity in high fat diet/STZ induced diabetic Wistar rat model assessed as healing of hepatocyte central veins at 3 to 10 mg/kg, IG pretreated with STZ for 21 days followed by compound treatment once daily for 21 days by H and E staining based microscopic analysis; assay type: functional, organism-based; conditions: dose 3-10 mg/kg, time 21.0 day
[30] = tested on: Rattus norvegicus; assay: Antioxidant activity in IG dosed high fat diet/STZ induced diabetic Wistar rat model assessed as reversal of GSH reduction in liver pretreated with STZ for 21 days followed by compound treatment once daily for 21 days by spectrophotometric analysis; assay type: functional, organism-based; conditions: dose 3-30 mg/kg, time 21.0 day
[31] = tested on: Rattus norvegicus; assay: Antioxidant activity in high fat diet/STZ induced diabetic Wistar rat model assessed as repair of pancreatic epithelial cells with reduced inflammation at 30 mg/kg, IG pretreated with STZ for 21 days followed by compound treatment once daily for 21 days by H and E staining based microscopic analysis; assay type: functional, organism-based; conditions: time 21.0 day
[32] = Antioxidant activity assessed as DPPH scavenging activity at 91.26 ug/ml incubated for 30 mins by absorbance based assay; assay type: functional; conditions: dose 91.26 µg/ml

Sequence of Dipeptidyl peptidase 8 (Q6V1X1 whole entry, the tested form may be a part): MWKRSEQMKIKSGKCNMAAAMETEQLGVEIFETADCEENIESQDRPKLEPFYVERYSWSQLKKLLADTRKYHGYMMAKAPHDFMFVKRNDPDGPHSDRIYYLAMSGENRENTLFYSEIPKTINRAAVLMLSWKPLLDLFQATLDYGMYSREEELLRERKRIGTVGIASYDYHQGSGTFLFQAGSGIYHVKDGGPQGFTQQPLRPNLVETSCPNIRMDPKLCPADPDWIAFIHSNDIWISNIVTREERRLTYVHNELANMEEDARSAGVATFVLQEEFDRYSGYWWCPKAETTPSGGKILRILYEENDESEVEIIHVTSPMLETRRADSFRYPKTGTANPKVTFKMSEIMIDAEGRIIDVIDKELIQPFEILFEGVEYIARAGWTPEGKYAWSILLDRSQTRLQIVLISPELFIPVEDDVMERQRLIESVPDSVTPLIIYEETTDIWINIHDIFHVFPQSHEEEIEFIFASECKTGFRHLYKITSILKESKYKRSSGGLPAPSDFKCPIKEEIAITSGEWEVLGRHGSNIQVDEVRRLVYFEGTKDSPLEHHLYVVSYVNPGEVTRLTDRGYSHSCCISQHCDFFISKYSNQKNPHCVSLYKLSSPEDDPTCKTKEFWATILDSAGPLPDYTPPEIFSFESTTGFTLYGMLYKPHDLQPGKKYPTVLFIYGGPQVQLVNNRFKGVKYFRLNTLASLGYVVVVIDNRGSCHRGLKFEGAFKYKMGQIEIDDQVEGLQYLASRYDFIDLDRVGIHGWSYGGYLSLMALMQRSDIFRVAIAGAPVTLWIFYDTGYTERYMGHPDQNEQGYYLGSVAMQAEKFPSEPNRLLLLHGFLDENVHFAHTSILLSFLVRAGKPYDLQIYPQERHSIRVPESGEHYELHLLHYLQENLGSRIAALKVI

In the case of Nc1nc(NC2=NC(c3ccccc3)=CC(c3cccc([N+](=O)[O-])c3)O2)nc(N2CCOCC2)n1 (configuration not stated), the Activity [1] is reported as “Dose-Dependent Effect”, the Activity [2] is reported as “Active” and the Activity [3] is reported as “Dose-Dependent Effect”. For the same molecule, the Activity [4] was “Non-Toxic”, the Activity [5] was “Active” and the Activity [6] was “inactive”. The Activity [7] was “Non-Toxic”, the Activity [8] was “Active” and the Activity [9] was “Active”. The Activity [10] was “Non-Toxic”, the IC50 [11] was > 400 nM and the Activity [12] was “Active”. For the same molecule, the Activity [13] was “Active”, the Activity [14] was “Dose-Dependent Effect” and the Activity [15] was “Non-Toxic”. The Activity [16] was “Non-Toxic”, the Activity [17] was “Non-Toxic” and the Activity [18] was “Active”. For the same molecule, the Activity [19] was “Active”, the Activity [20] was “Dose-Dependent Effect” and the Activity [21] was “Non-Toxic”. The Activity [22] was “Active”, the Activity [23] was “Active” and the Activity [24] was “Active”. For the same molecule, the Activity [25] was “Active”, the Activity [26] was “Non-Toxic” and the Activity [27] was “Non-Toxic”. The Activity [28] was “Active”, the Activity [29] was “Active” and the Activity [30] was “Dose-Dependent Effect”. The Activity [31] was “Active” and the Activity [32] was “Active”.
